Measurements taken from ChEMBL document CHEMBL3603744, “Structure activity relationship of C-2 ether substituted 1,5-naphthyridine analogs of oxabicyclooctane-linked novel bacterial topoisomerase inhibitors as broad-spectrum antibacterial agents (Part-5)” (Bioorg Med Chem Lett, 2015).
Values after ≈ are worked out from the molar mass of the structure shown. Active and inactive are the calls of the source. How the calls were made is not given here.

What was measured:
Staphylococcus aureus [1] = experiment: Antimicrobial activity against Staphylococcus aureus infected in iv dosed mouse bacteremia survival model; format: functional
Staphylococcus aureus [2] = experiment: Antimicrobial activity against Staphylococcus aureus infected in orally dosed mouse bacteremia survival model; format: functional; conditions: po
Mus musculus = experiment: Dose normalized AUC in C57BL/6 mouse at 2 mg/kg, iv or 5 mg/kg, po; format: ADME, organism-based; conditions: in vivo
[3] = Plasma clearance in C57BL/6 mouse at 2 mg/kg, iv or 5 mg/kg, po; format: ADME, organism-based
[4] = Volume of distribution at steady state in C57BL/6 mouse at 2 mg/kg, iv or 5 mg/kg, po; format: ADME, organism-based; conditions: in vivo, read-out: Vdss
[5] = Half life in C57BL/6 mouse at 2 mg/kg, iv or 5 mg/kg, po; format: ADME, organism-based; conditions: in vivo
[6] = Oral bioavailability in C57BL/6 mouse at 5 mg/kg; format: ADME, organism-based; conditions: in vivo
Rattus norvegicus = experiment: Dose normalized AUC in Sprague-Dawley rat at 2 mg/kg, iv or 5 mg/kg, po; format: ADME, organism-based; conditions: in vivo
[7] = Plasma clearance in Sprague-Dawley rat at 2 mg/kg, iv or 5 mg/kg, po; format: ADME, organism-based
[8] = Volume of distribution at steady state in Sprague-Dawley rat at 2 mg/kg, iv or 5 mg/kg, po; format: ADME, organism-based; conditions: in vivo, read-out: Vdss
[9] = Half life in Sprague-Dawley rat at 2 mg/kg, iv or 5 mg/kg, po; format: ADME, organism-based; conditions: in vivo
[10] = Oral bioavailability in Sprague-Dawley rat at 5 mg/kg; format: ADME, organism-based; conditions: in vivo
Staphylococcus aureus [11] = experiment: Antimicrobial activity against Staphylococcus aureus Smith by micro broth dilution or agar based method; format: functional
Streptococcus pneumoniae = experiment: Antimicrobial activity against Streptococcus pneumoniae IID553 by micro broth dilution or agar based method; format: functional
Enterococcus faecium = experiment: Antimicrobial activity against vancomycin-resistant Enterococcus faecium VanA by micro broth dilution or agar based method; format: functional
Escherichia coli = experiment: Antimicrobial activity against Escherichia coli ATCC 25922 by micro broth dilution or agar based method; format: functional
Acinetobacter baumannii = experiment: Antimicrobial activity against Acinetobacter baumannii IID876 by micro broth dilution or agar based method; format: functional
Pseudomonas aeruginosa = experiment: Antimicrobial activity against Pseudomonas aeruginosa PAO1 by micro broth dilution or agar based method; format: functional
Staphylococcus aureus [12] = experiment: Antimicrobial activity against methicillin-resistant Staphylococcus aureus OIT971 by micro broth dilution or agar based method; format: functional, organism-based
Staphylococcus aureus [13] = experiment: Resistance index, ratio of MIC for quinolone-resistant Staphylococcus aureus MS5935 to MIC for quinolone-[…]; format: functional
Staphylococcus aureus [14] = experiment: Antimicrobial activity against quinolone-resistant Staphylococcus aureus MS5935; format: functional
Staphylococcus aureus [15] = experiment: Antimicrobial activity against quinolone-sensitive Staphylococcus aureus MS5935

| SMILES | ED50 (Staphylococcus aureus [1]) [mg/kg] | ED50 (Staphylococcus aureus [2]) [mg/kg] | MIC (Staphylococcus aureus [11]) [µg/mL] | MIC (Streptococcus pneumoniae) [µg/mL] | MIC (Enterococcus faecium) [µg/mL] | MIC (Escherichia coli) [µg/mL] | MIC (Acinetobacter baumannii) [µg/mL] | MIC (Pseudomonas aeruginosa) [µg/mL] | growth inhibition (GI) (Staphylococcus aureus [12]) | Ratio (Staphylococcus aureus [13]) | other results |
| --- | --- | --- | --- | --- | --- | --- | --- | --- | --- | --- | --- |
| Cl.O=C1COc2ccc(CNC34CCC(CCc5c(F)cnc6ccc(OCCCO)nc56)(CC3)OC4)nc2N1 | 5.9 | 15 |  |  |  |  |  |  |  |  | AUC/dose (Mus musculus): 1.6 µM·h/mg/kg; clearance [3]: 38.7 mL/min/kg; Vd [4]: 1.46 L/kg; half-life [5]: 1.5 h; bioavailability [6]: 16%; AUC/dose (Rattus norvegicus): 1.9 µM·h/mg/kg; clearance [7]: 33.2 mL/min/kg; Vd [8]: 0.84 L/kg; half-life [9]: 0.58 h; bioavailability [10]: 49% |
| Cl.O=C1COc2ccc(CNC34CCC([C@@H](O)Cc5c(F)cnc6ccc(OCCCO)nc56)(CC3)OC4)nc2N1 | 5.5 | > 50 |  |  |  |  |  |  |  |  |  |
| NCCCCCOc1ccc2ncc(F)c(CCC34CCC(NCc5ccc6c(n5)NC(=O)CO6)(CC3)CO4)c2n1 |  |  | 0.5 (≈ 0.885 µM) | 1 (≈ 1.77 µM) | 8 (≈ 14.2 µM) | 4 (≈ 7.08 µM) | 4 (≈ 7.08 µM) | 16 (≈ 28.3 µM) | Active | <4 |  |
| Cl.O=C1COc2ccc(CNC34CCC(CCc5c(F)cnc6ccc(OCCO)nc56)(CC3)OC4)nc2N1 | 13 | > 50 |  |  |  |  |  |  |  |  |  |
| COCCOc1ccc2ncc(F)c(CCC34CCC(NCc5ccc6c(n5)NC(=O)CO6)(CC3)CO4)c2n1.Cl | 7.2 |  |  |  |  |  |  |  |  |  |  |
| CN(C)C(=O)COc1ccc2ncc(F)c(CCC34CCC(NCc5ccc6c(n5)NC(=O)CO6)(CC3)CO4)c2n1 |  |  | 1 (≈ 1.77 µM) | 4 (≈ 7.08 µM) | 16 (≈ 28.3 µM) | 16 (≈ 28.3 µM) | 16 (≈ 28.3 µM) | 16 (≈ 28.3 µM) | Active | <4 |  |
| Cl.NCCCOc1ccc2ncc(F)c(CCC34CCC(NCc5ccc6c(n5)NC(=O)CO6)(CC3)CO4)c2n1 | 15 | > 50 |  |  |  |  |  |  |  |  |  |
| C=CCOc1ccc2ncc(F)c(CCC34CCC(NCc5ccc6c(n5)NC(=O)CO6)(CC3)CO4)c2n1 |  |  | 0.063 (≈ 0.121 µM) | 1 (≈ 1.92 µM) | 8 (≈ 15.4 µM) | 8 (≈ 15.4 µM) | 2 (≈ 3.85 µM) | 16 (≈ 30.8 µM) | Active | <4 |  |
| C[C@H]1COc2c(N3CCN(C)CC3)c(F)cc3c(=O)c(C(=O)O)cn1c23.C[C@H]1COc2c(N3CCN(C)CC3)c(F)cc3c(=O)c(C(=O)O)cn1c23.O [LEVOFLOXACIN] |  |  |  |  |  |  |  |  |  | >64 | MIC (Staphylococcus aureus [14]): > 16 µg/mL; MIC (Staphylococcus aureus [15]): 0.25 µg/mL |
| COc1ccc2ncc(F)c(C[C@H](O)C34CCC(NCc5ccc6c(n5)NC(=O)CO6)(CC3)CO4)c2n1.Cl | 2.5 | 2.2 |  |  |  |  |  |  |  |  |  |
| Cl.O=C1COc2ccc(CNC34CCC(CCc5c(F)cnc6ccc(OCCCCCO)nc56)(CC3)OC4)nc2N1 | 21 | 43 |  |  |  |  |  |  |  |  |  |
| COc1ccc2ncc(F)c(CCC34CCC(NCc5ccc6c(n5)NC(=O)CO6)(CC3)CO4)c2n1.Cl | 5.5 | 17 |  |  |  |  |  |  |  |  |  |
| CNC(=O)COc1ccc2ncc(F)c(CCC34CCC(NCc5ccc6c(n5)NC(=O)CO6)(CC3)CO4)c2n1 |  |  | 0.125 (≈ 0.227 µM) | 0.5 (≈ 0.908 µM) | 4 (≈ 7.26 µM) | 16 (≈ 29.1 µM) | 4 (≈ 7.26 µM) | 16 (≈ 29.1 µM) | Active | <4 |  |
| CC(C)COc1ccc2ncc(F)c(CCC34CCC(NCc5ccc6c(n5)NC(=O)CO6)(CC3)CO4)c2n1 |  |  | 0.063 (≈ 0.118 µM) | 0.25 (≈ 0.467 µM) | 4 (≈ 7.47 µM) | 16 (≈ 29.9 µM) | 2 (≈ 3.73 µM) | 16 (≈ 29.9 µM) | Active | <4 |  |
| CC(C)Oc1ccc2ncc(F)c(CCC34CCC(NCc5ccc6c(n5)NC(=O)CO6)(CC3)CO4)c2n1 |  |  | 0.25 (≈ 0.479 µM) | 2 (≈ 3.83 µM) | 8 (≈ 15.3 µM) | 16 (≈ 30.7 µM) | 8 (≈ 15.3 µM) | 32 (≈ 61.4 µM) | Active | <4 |  |
